In ChEMBL document CHEMBL1141341, “Minor sesquiterpene lactones from Centaurea pullata and their antimicrobial activity” (2007):
Converted amounts (≈) assume the structure as drawn.

Tests used:
Talaromyces funiculosus = assay: Antifungal activity against Penicillium funiculosum ATCC 36839 by microdilution technique; format: functional
Penicillium ochrochloron = assay: Antifungal activity against Penicillium ochrochloron ATCC 9112 by microdilution technique; format: functional
Fusarium tricinctum = assay: Antifungal activity against Fusarium tricinctum CBS 514478 by microdilution technique; format: functional
Trichoderma viride = assay: Antifungal activity against Trichoderma viride IAM 5061 by microdilution technique; format: functional
Pseudomonas tolaasii = assay: Antibacterial activity against Pseudomonas tolaasii by microdilution technique; format: functional
[1] = system: Staphylococcus epidermidis; assay: Antibacterial activity against Staphylococcus epidermidis ATCC 12228 by microdilution technique; format: functional
Escherichia coli = assay: Antibacterial activity against Escherichia coli ATCC 35210 by microdilution technique; format: functional
Aspergillus niger = assay: Antifungal activity against Aspergillus niger ATCC 6275 by microdilution technique; format: functional
Aspergillus flavus = assay: Antifungal activity against Aspergillus flavus ATCC 9643 by microdilution technique; format: functional
Bacillus subtilis = assay: Antibacterial activity against Bacillus subtilis ATCC 10907 by microdilution technique; format: functional
Salmonella enteritidis = assay: Antibacterial activity against Salmonella enteritidis by microdilution technique; format: functional, Salmonella enterica subsp. enterica serovar Enteritidis; settings: Salmonella enterica
Aspergillus ochraceus = assay: Antifungal activity against Aspergillus ochraceus ATCC 12066 by microdilution technique; format: functional
Alternaria alternata = assay: Antifungal activity against Alternaria alternata DSM 2006 by microdilution technique; format: functional
Micrococcus luteus = assay: Antibacterial activity against Micrococcus flavus ATCC 10240 by microdilution technique; format: functional

Compound	MFC (Talaromyces funiculosus) [µg/mL]	MIC (Talaromyces funiculosus) [µg/mL]	MFC (Penicillium ochrochloron) [µg/mL]	MIC (Penicillium ochrochloron) [µg/mL]	MFC (Fusarium tricinctum) [µg/mL]	MIC (Fusarium tricinctum) [µg/mL]	MFC (Trichoderma viride) [µg/mL]	MIC (Trichoderma viride) [µg/mL]	MBC (Pseudomonas tolaasii) [µg/mL]	MIC (Pseudomonas tolaasii) [µg/mL]	MBC [1] [µg/mL]	MIC [1] [µg/mL]	MBC (Escherichia coli) [µg/mL]	MIC (Escherichia coli) [µg/mL]	MFC (Aspergillus niger) [µg/mL]	MIC (Aspergillus niger) [µg/mL]	MFC (Aspergillus flavus) [µg/mL]	MIC (Aspergillus flavus) [µg/mL]	MBC (Bacillus subtilis) [µg/mL]	MIC (Bacillus subtilis) [µg/mL]	further results
C=C(C(=O)O[C@H]1C/C(C)=C/CC/C(CO)=C/[C@H]2OC(=O)[C@H](C)[C@H]12)C(O)CO (stereo partly drawn)	0.3 (≈ 0.789 µM)	0.2 (≈ 0.526 µM)	0.2 (≈ 0.526 µM)	0.1 (≈ 0.263 µM)	0.2 (≈ 0.526 µM)	0.1 (≈ 0.263 µM)	0.3 (≈ 0.789 µM)	0.2 (≈ 0.526 µM)	0.3 (≈ 0.789 µM)	0.2 (≈ 0.526 µM)	0.4 (≈ 1.05 µM)	0.4 (≈ 1.05 µM)	0.3 (≈ 0.789 µM)	0.2 (≈ 0.526 µM)	0.3 (≈ 0.789 µM)	0.2 (≈ 0.526 µM)	0.2 (≈ 0.526 µM)	0.1 (≈ 0.263 µM)	0.2 (≈ 0.526 µM)	0.2 (≈ 0.526 µM)	MBC (Salmonella enteritidis): 0.3 µg/mL (≈ 0.789 µM); MIC (Salmonella enteritidis): 0.3 µg/mL (≈ 0.789 µM); MFC (Aspergillus ochraceus): 0.2 µg/mL (≈ 0.526 µM); MIC (Aspergillus ochraceus): 0.1 µg/mL (≈ 0.263 µM); MFC (Alternaria alternata): 0.2 µg/mL (≈ 0.526 µM); MIC (Alternaria alternata): 0.1 µg/mL (≈ 0.263 µM); MBC (Micrococcus luteus): 0.3 µg/mL (≈ 0.789 µM); MIC (Micrococcus luteus): 0.2 µg/mL (≈ 0.526 µM)
CC(=O)OC/C=C(/CO)C(=O)O[C@H]1C/C(C)=C/CC/C(CO)=C/[C@H]2OC(=O)[C@H](C)[C@H]12	0.3 (≈ 0.71 µM)	0.2 (≈ 0.473 µM)	0.2 (≈ 0.473 µM)	0.1 (≈ 0.237 µM)	0.3 (≈ 0.71 µM)	0.2 (≈ 0.473 µM)	0.3 (≈ 0.71 µM)	0.2 (≈ 0.473 µM)	0.3 (≈ 0.71 µM)	0.2 (≈ 0.473 µM)	0.5 (≈ 1.18 µM)	0.4 (≈ 0.947 µM)	0.3 (≈ 0.71 µM)	0.3 (≈ 0.71 µM)	0.3 (≈ 0.71 µM)	0.2 (≈ 0.473 µM)	0.2 (≈ 0.473 µM)	0.2 (≈ 0.473 µM)	0.3 (≈ 0.71 µM)	0.2 (≈ 0.473 µM)	MBC (Salmonella enteritidis): 0.3 µg/mL (≈ 0.71 µM); MIC (Salmonella enteritidis): 0.3 µg/mL (≈ 0.71 µM); MFC (Aspergillus ochraceus): 0.2 µg/mL (≈ 0.473 µM); MIC (Aspergillus ochraceus): 0.1 µg/mL (≈ 0.237 µM); MFC (Alternaria alternata): 0.3 µg/mL (≈ 0.71 µM); MIC (Alternaria alternata): 0.2 µg/mL (≈ 0.473 µM); MBC (Micrococcus luteus): 0.3 µg/mL (≈ 0.71 µM); MIC (Micrococcus luteus): 0.2 µg/mL (≈ 0.473 µM)
C=C(CCO)C(=O)O[C@H]1C[C@]2(C)C([C@H](C=O)CC[C@H]2O)[C@H]2OC(=O)[C@H](C)[C@H]12 (stereo partly drawn)	0.4 (≈ 1.05 µM)	0.3 (≈ 0.789 µM)	0.4 (≈ 1.05 µM)	0.3 (≈ 0.789 µM)	0.3 (≈ 0.789 µM)	0.2 (≈ 0.526 µM)	0.4 (≈ 1.05 µM)	0.3 (≈ 0.789 µM)	0.5 (≈ 1.31 µM)	0.4 (≈ 1.05 µM)	0.5 (≈ 1.31 µM)	0.4 (≈ 1.05 µM)	0.4 (≈ 1.05 µM)	0.4 (≈ 1.05 µM)	0.3 (≈ 0.789 µM)	0.2 (≈ 0.526 µM)	0.3 (≈ 0.789 µM)	0.2 (≈ 0.526 µM)	0.3 (≈ 0.789 µM)	0.2 (≈ 0.526 µM)	MBC (Salmonella enteritidis): 0.4 µg/mL (≈ 1.05 µM); MIC (Salmonella enteritidis): 0.4 µg/mL (≈ 1.05 µM); MFC (Aspergillus ochraceus): 0.3 µg/mL (≈ 0.789 µM); MIC (Aspergillus ochraceus): 0.2 µg/mL (≈ 0.526 µM); MFC (Alternaria alternata): 0.3 µg/mL (≈ 0.789 µM); MIC (Alternaria alternata): 0.2 µg/mL (≈ 0.526 µM); MBC (Micrococcus luteus): 0.3 µg/mL (≈ 0.789 µM); MIC (Micrococcus luteus): 0.2 µg/mL (≈ 0.526 µM)
C=C(CCO)C(=O)O[C@H]1C/C(C)=C/CC/C(CO)=C/[C@H]2OC(=O)[C@H](C)[C@H]12	0.3 (≈ 0.823 µM)	0.2 (≈ 0.549 µM)	0.2 (≈ 0.549 µM)	0.1 (≈ 0.274 µM)	0.3 (≈ 0.823 µM)	0.2 (≈ 0.549 µM)	0.3 (≈ 0.823 µM)	0.2 (≈ 0.549 µM)	0.3 (≈ 0.823 µM)	0.3 (≈ 0.823 µM)	0.4 (≈ 1.1 µM)	0.4 (≈ 1.1 µM)	0.2 (≈ 0.549 µM)	0.2 (≈ 0.549 µM)	0.3 (≈ 0.823 µM)	0.2 (≈ 0.549 µM)	0.2 (≈ 0.549 µM)	0.1 (≈ 0.274 µM)	0.2 (≈ 0.549 µM)	0.2 (≈ 0.549 µM)	MBC (Salmonella enteritidis): 0.3 µg/mL (≈ 0.823 µM); MIC (Salmonella enteritidis): 0.3 µg/mL (≈ 0.823 µM); MFC (Aspergillus ochraceus): 0.2 µg/mL (≈ 0.549 µM); MIC (Aspergillus ochraceus): 0.1 µg/mL (≈ 0.274 µM); MFC (Alternaria alternata): 0.3 µg/mL (≈ 0.823 µM); MIC (Alternaria alternata): 0.2 µg/mL (≈ 0.549 µM); MBC (Micrococcus luteus): 0.3 µg/mL (≈ 0.823 µM); MIC (Micrococcus luteus): 0.2 µg/mL (≈ 0.549 µM)
C=C(CCO)C(=O)O[C@H]1C[C@]2(C)C([C@H]3OC(=O)[C@H](C)[C@H]13)[C@@H](C=O)CC[C@H]2O (stereo partly drawn)	0.4 (≈ 1.05 µM)	0.3 (≈ 0.789 µM)	0.4 (≈ 1.05 µM)	0.3 (≈ 0.789 µM)	0.3 (≈ 0.789 µM)	0.2 (≈ 0.526 µM)	0.5 (≈ 1.31 µM)	0.4 (≈ 1.05 µM)	0.3 (≈ 0.789 µM)	0.2 (≈ 0.526 µM)	0.5 (≈ 1.31 µM)	0.4 (≈ 1.05 µM)	0.4 (≈ 1.05 µM)	0.4 (≈ 1.05 µM)	0.3 (≈ 0.789 µM)	0.2 (≈ 0.526 µM)	0.3 (≈ 0.789 µM)	0.2 (≈ 0.526 µM)	0.3 (≈ 0.789 µM)	0.2 (≈ 0.526 µM)	MBC (Salmonella enteritidis): 0.4 µg/mL (≈ 1.05 µM); MIC (Salmonella enteritidis): 0.4 µg/mL (≈ 1.05 µM); MFC (Aspergillus ochraceus): 0.3 µg/mL (≈ 0.789 µM); MIC (Aspergillus ochraceus): 0.2 µg/mL (≈ 0.526 µM); MFC (Alternaria alternata): 0.3 µg/mL (≈ 0.789 µM); MIC (Alternaria alternata): 0.2 µg/mL (≈ 0.526 µM); MBC (Micrococcus luteus): 0.3 µg/mL (≈ 0.789 µM); MIC (Micrococcus luteus): 0.2 µg/mL (≈ 0.526 µM)
CN[C@@H]1[C@H](O[C@H]2[C@H](O[C@H]3[C@H](O)[C@@H](O)[C@H](N=C(N)N)[C@@H](O)[C@@H]3N=C(N)N)O[C@@H](C)[C@]2(O)C=O)O[C@@H](CO)[C@H](O)[C@H]1O (stereo in doubt) [STREPTOMYCIN]									2 (≈ 3.44 µM)	1 (≈ 1.72 µM)	1 (≈ 1.72 µM)	1 (≈ 1.72 µM)	1 (≈ 1.72 µM)	0.5 (≈ 0.86 µM)					0.5 (≈ 0.86 µM)	0.5 (≈ 0.86 µM)	MBC (Salmonella enteritidis): 1 µg/mL (≈ 1.72 µM); MIC (Salmonella enteritidis): 1 µg/mL (≈ 1.72 µM); MBC (Micrococcus luteus): 1 µg/mL (≈ 1.72 µM); MIC (Micrococcus luteus): 0.5 µg/mL (≈ 0.86 µM)
Clc1ccc(COC(Cn2ccnc2)c2ccc(Cl)cc2Cl)c(Cl)c1 (stereo not drawn) [MICONAZOLE]	5 (≈ 12 µM)	2 (≈ 4.81 µM)	5 (≈ 12 µM)	2 (≈ 4.81 µM)	1 (≈ 2.4 µM)	0.2 (≈ 0.481 µM)	2 (≈ 4.81 µM)	2 (≈ 4.81 µM)							4 (≈ 9.61 µM)	1.5 (≈ 3.6 µM)	2 (≈ 4.81 µM)	0.5 (≈ 1.2 µM)			MFC (Aspergillus ochraceus): 4 µg/mL (≈ 9.61 µM); MIC (Aspergillus ochraceus): 1.5 µg/mL (≈ 3.6 µM); MFC (Alternaria alternata): 1 µg/mL (≈ 2.4 µM); MIC (Alternaria alternata): 0.2 µg/mL (≈ 0.481 µM)
